The results in this text go back to US9167812B2, “Biocide compositions comprising amides based on 2-furoic acid and its derivatives” (Cognis IP Management GmbH, priority 2010, dated 2015).

Where two headings read alike, the source gives them in different places.

A short description of data set [1]: Solubility in water of each amide. In kind it is physicochemical. As to the method:
(§1) Solubility of several pesticides was measured in THF amides versus other amides. In addition the solubility in water of each amide has been checked.

A short description of data set [2]: Solubility of pesticides in THF amides versus other amides. In kind it is physicochemical. As to the method: as §1
Setting [3] is: solubility of the amide solvent in water.

On to `CN(C)C(=O)c1ccco1` [Example 5, 2-Furoic acid dimethyl amide], for which the Water solubility entry in data set [1] (setting [3]) was “Medium”.

For `CCCCN(CCCC)C(=O)c1ccco1` [Example 6, 2-Furoic acid dibutyl amide], the Water solubility result in data set [1] (setting [3]) is on record as “Medium”.

Turning to `CN(C)C(=O)C1CCCO1` (stereo not shown) [Example 7, THF dimethyl amide], the Water solubility entry in data set [1] was “High”. Moreover, in data set [2], the “Solubility of biocides: Epoxyconazole” value is 10 % b.w, the “Solubility of biocides: Imidacloprid” value is 19 % b.w, the “Solubility of biocides: Oxyfluorfen” value turned out to be 31 % b.w and the “Solubility of biocides: Tebuconazole” value is 46 % b.w.

`CCCCN(CCCC)C(=O)C1CCCO1` (stereo not shown) [Example 8, 2-Tetrahydrofuroic Acid Dibutylamide]: the Water solubility entry in data set [1] (setting [3]) was “Medium”.

As to `CCCCCCCCCC(=O)N(C)C` [Example C3, C10 dimethyl amide, reference compound], the Water solubility result in data set [1] (setting [3]) is given as “Low”. For the same compound, in data set [2] (Epoxyconazole dissolved in the named solvent), the “Solubility of biocides: Epoxyconazole” value is listed as 8 % b.w. In addition, in data set [2] (Imidacloprid dissolved in the named solvent), the “Solubility of biocides: Imidacloprid” value was 2 % b.w. Besides, the “Solubility of biocides: Oxyfluorfen” value in data set [2] (Oxyfluorfen dissolved in the named solvent) worked out at 27 % b.w. For the same compound, the “Solubility of biocides: Tebuconazole” value in data set [2] (Tebuconazole dissolved in the named solvent) was determined as 32 % b.w.
